Experimental data as given in patent US9585389B2, “Microbicidal composition” (Dow Global Technologies LLC, priority 2013, dated 2017).
Where two headings read alike, the source gives them in different places.

Assays:
[1] = tested on: Aspergillus niger ATCC#16404; assay: MIC / synergy index test in 96 well microtiter plates; assay type: cell-based; conditions: ATCC16404, read-out: CB (MIC of compound B alone)
Protocol: (§1) Surfactants and biocides were evaluated for synergy by determining the synergy index (S.I.) of the combination. Synergy index was calculated based on minimum inhibitory concentrations (MIC) of two antimicrobial compounds (A and B) alone and in combinations. The tests organisms were Gram negative bacteria (Pseudomonas aeruginosa ATCC #15442),
(§2) Gram positive bacteria (Staphylococcus aureus ATCC #6538), yeast (Candida albicans ATCC#10203) and mold (Aspergillus niger ATCC#16404). Contact time for the bacteria was 24 and 48 hours, yeast was 48 and 72 hrs, and 3 and 7 days for mold. The test was carried out in 96 well microtiter plates. • Surf. A R^1O(CH2CH(CH3)o)5(CH2CH2O)9H, where R^1 is 2-ethylhexyl • Surf. D R^2O(CH2CH(CH3)o)3(CH2CH2O)5H • Surf. E R^2O(CH2CH(CH3)o)3(CH2CH2O)7H • In Surf. D and Surf. E, R^2 is a mixture of C8-C14 linear alkyl groups (70% C8-C10 linear alkyl and 30% C12-C14 linear alkyl)
(§3) The pH of the Triptic soy broth was 7.3 and the Potato dextrose broth was 5.1.
(§4) SI is calculated as follows: Ca/CA+Cb/CB=Synergy Index (“SI”)
(§5) Wherein: • CA=concentration of compound A in ppm, acting alone, which produced an end point (MIC of Compound A). • Ca=concentration of compound A in ppm, in the mixture, which produced an end point. • CB=concentration of compound B in ppm, acting alone, which produced an end point (MIC of Compound B). • Cb=concentration of compound B in ppm, in the mixture, which produced an end point. When the sum of Ca/CA and Cb/CB is greater than one, antagonism is indicated.

[2] = tested on: Staphylococcus aureus ATCC #6538; assay: as above; assay type: cell-based; conditions: 1/10 TSB; for MIC: Staphylococcus aureus, ATCC6538, 24 h, Phenoxyethanol alone
Protocol: as §1, §2, §3, §4, §5

[3] = tested on: Candida albicans ATCC#10203; assay: as above; assay type: cell-based; conditions: ATCC10203, 48 h, read-out: CB (MIC of compound B alone)
Protocol: as §1, §2, §3, §4, §5

[4] = tested on: Pseudomonas aeruginosa ATCC #15442; assay: as above; assay type: cell-based; conditions: 1/10 TSB; for MIC: Pseudomonas aeruginosa, ATCC15442, 24 h, Phenoxyethanol alone, read-out: CB (MIC of compound B alone)
Protocol: as §1, §2, §3, §4, §5

[5] = Stability Testing of phenoxyethanol/surfactant solutions; assay type: physicochemical; conditions: 33% phenoxyethanol in 70% isopropanol with surfactant, PE:Surfactant 1:27
Protocol: A solution of phenoxyethanol in 70% (v/v) isopropanol was made and diluted with surfactant to give the desired ratios of biocide to surfactant. Additional 70% isopropanol was added as needed to give a 33 wt % solution of phenoxyethanol. The samples were split into three vials. One vial was stored at room temperature, one was stored at 40 C and one was stored at 50 C. […] Samples that were cloudy or highly discolored were determined to be unstable.

## OCCOc1ccccc1 [Phenoxyethanol, 2-phenoxy-1-ethanol]
[1]
  MIC: 4000 µg/mL
[2]; series with Surf. A, inoculum 1.156E-+06CFU/ml, read-out: CB (MIC of compound B alone)
  MIC: 8000 µg/mL
[2]; series with Surf. D, inoculum 1.808E+05, read-out: CB (MIC of compound B alone)
  MIC: 10000 µg/mL
[2]; series with Surf. E, inoculum 1.808E+06CFU/ml, read-out: CB (MIC of compound B alone)
  MIC: 8000 µg/mL
[3]
  MIC: 4000 µg/mL
[4]; series with Surf. A, inoculum 8.134E+07CFU/ml
  MIC: 5000 µg/mL
[4]; series with Surf. D, inoculum 1.16E+05CFU/ml
  MIC: 4000 µg/mL
[4]; series with Surf. E, inoculum 5.727E+07CFU/ml
  MIC: 4000 µg/mL

## CCCCC(CC)COCC(C)OCC(C)OCC(C)OCC(C)OCC(C)OCCOCCOCCOCCOCCOCCOCCOCCOCCO (centres unmarked) [Surf. A, R^1O(CH2CH(CH3)o)5(CH2CH2O)9H, where R^1 is 2-ethylhexyl]
[2]; Surf. A alone, 24 hrs, inoculum 1.156E-+06CFU/ml
  CA (MIC of compound A alone): >20000 ppm
[4]; Surf. A alone, 24 hrs, inoculum 8.134E+07CFU/ml
  CA (MIC of compound A alone): >20000 ppm

## POLYSORBATE 20
[5]; Day 2, 40° C.
  Stability (appearance): Slightly
[5]; Day 2, 50° C.
  Stability (appearance): Slightly
[5]; Day 7, 40° C.
  Stability (appearance): Slightly
[5]; Day 7, 50° C.
  Stability (appearance): Slightly
